Read-outs that look alike come from different tables or passages of the source.
Key:
KCNR cells = test: alamarBlue viability assay; assay type: cell-based; details: 24 h incubation, read-out: IC50 (cell viability)
Procedure: Efficacy of YM155 loaded liposomes (targeted and non-targeted control liposomes) was studied on KCNR by alamarBlue viability assay (Thermo Fischer Scientific), according to the supplier’s instruction. KCNR cells were seeded at 20 × 10^3 cells/well in 96 well Greiner polystyrene plates (Sigma Aldrich) in complete DMEM medium and allowed to adhere overnight. The medium was replaced by cell culture medium supplemented with YM155 or YM155 liposomal formulations at concentrations ranging from 0.8 to 100 nM, after which the cell culture were incubated for 24 h at 37°C. Control experiments included incubations with empty liposomes (i.e. without YM155) at equivalent TL concentrations in the range of 0.08–11 μM TL. After 24 h of incubation, medium was replaced with drug-free medium containing alamarBlue reagent (10 vol%), after which cells were incubated for an extra 3 h at 37°C. Fluorescence was quantified with a microplate reader (Mithras LB940) and used to calculate the relative percentage of living cells normalized against control cells that had not been treated with YM155. IC50 values were calculated by curve fitting using non-linear regression in Graph Pad Prism 6.0.

[1] = Table I, no reference given; cited from earlier work
[2] = cited from earlier work
[3] = Pharmacokinetic pilot study, YM155 in blood/plasma after single i.v. administration; assay type: in vivo, mice; details: for half-life / Vd: 1 mg/kg
Procedure: (§1) Animal experiments were conducted in compliance with the national regulations and have been approved by the local ethical committee for animal experimentation. NMRI nu/nu female mice (25 g, Charles River, Massachusetts, USA) were housed in a temperature-controlled room (approximately 22°C) with 55 to 65% relative humidity, a photoperiod of 12/12 h with free access to water and pelleted rodent food. The mice were challenged with KCNR neuroblastoma (passage 1–2) derived from DAG102776 by serial xenotransplantation in both flanks. When the tumor growth reached the size of approximately 8 × 8 mm, mice were randomly divided in three groups that were injected intravenously with either free YM155 dissolved in HBS (1 mg/kg, n = 11), YM155 loaded anti-GD2-immunoliposomes (3 μmol TL/kg diluted in HBS, equivalent to 1 mg/kg YM155, n = 11), or an equivalent dose of YM155 loaded control liposomes (n = 11). At designated time points (i.e. 5 min, 9 min, 15 min, 30 min, 1 h, 4 h, 8 h, 24 h, 48 h and 72 h), blood samples (approximately 0.5 ml per sampling time point) were collected in tubes containing EDTA as anticoagulant and mice were sacrificed. Blood samples and excised tumors were stored at −80°C until analysis of their YM155 concentration by liquid chromatography-tandem mass spectrometry (LC-MS/MS) ([34]).
(§2) Pharmacokinetic analysis of the in-vivo data was performed using the Pk Solver 2.0 add-in template for Microsoft Excel, as described previously ([35]). Pharmacokinetic parameters were determined by non-compartmental analysis (NCA) using linear-logarithmic trapezoidal model fitting, or by compartmental analysis (CA) using 1-compartment model fitting.

neuroblastoma cell lines = details: most neuroblastoma cell lines; Table I, no reference given; cited from earlier work
[4] = Tumor accumulation of YM155 in subcutaneous KCNR tumor xenografts; assay type: in vivo, mice; details: single i.v. 1 mg/kg
Procedure: as §1, with “At designated time points (i.e. 5 min, 9 min, 15 min, 30 min, 1 h, 4 h, 8 h, 24 h, 48 h and 72 h), blood samples (approximately 0.5 ml per sampling time point) were collected in tubes containing EDTA as anticoagulant and mice were sacrificed. Blood samples and excised tumors were stored at −80°C until analysis of their YM155 concentration by liquid chromatography-tandem mass spectrometry (LC-MS/MS) ([34]).” left out
as §2

- AUC(0-inf) ([3]; female, NMRI nu/nu, mouse, iv, single i.v. 1 mg/kg, NCA, blood/plasma): 136 ng·h/mL
- half-life ([3]; female, NMRI nu/nu, mouse, plasma, iv, single i.v. 1 mg/kg YM155, female mice with KCNR xenografts, non-compartmental analysis, read-out: t1/2 (NCA) (converted)): 24 min
- Vd ([3]; female, NMRI nu/nu, mouse, plasma, iv, single i.v. 1 mg/kg, NCA, read-out: Vss): 2.47 L/kg
- Vd ([3]; female, NMRI nu/nu, mouse, plasma, iv, single i.v. 1 mg/kg, NCA, read-out: Vz): 4.65 L/kg
- half-life ([3]; female, NMRI nu/nu, mouse, plasma, iv, single i.v. 1 mg/kg, compartmental analysis, 1-compartment model, read-out: CA t1/2 (converted)): 12 min
- clearance ([3]; female, NMRI nu/nu, mouse, plasma, iv, single i.v. 1 mg/kg, NCA): 122 mL/min/kg
- MRT inf ([3]; female, NMRI nu/nu, mouse, plasma, iv, single i.v. 1 mg/kg, NCA, read-out: MRT0-∞): 20.4 min
- Time plasma levels were detectable post administration ([3]; single i.v. 1 mg/kg): about 8 h
- Time intratumor levels of YM155 could be detected post injection [4]: up to 24 h
SMILES: COCCn1c2c([n+](Cc3cnccn3)c1C)C(=O)c1ccccc1C2=O [YM155, Sepantronium bromide]
- IC50 (KCNR cells): 0.027 µM
- LogP [1]: −3.7
- Solubility in water [1]: At least 0,5 mg/ml
- pKa [1]: 5.3
- Previously reported half-life [2]: ~ 1 h
- Plasma half-life ([2]; mice and rats): 60 to 120 min
- IC50 (neuroblastoma cell lines): Low nM range for most neuroblastoma cell lines

From article PMC5842274, “Anti-GD2 Immunoliposomes for Targeted Delivery of the Survivin Inhibitor Sepantronium Bromide (YM155) to Neuroblastoma Tumor Cells” (Pharmaceutical Research, 2018)
